Patent US20250084041A1, “ANTIMICROBIAL COMPOUNDS AND METHODS” (Curza Global, LLC, priority 2021, published 2025)
Counter-ions that a name gives are not always drawn. Like-named read-outs stand apart in the source and are kept apart here.

Tests used:
S. aureus (Sa) = assay: Broth microdilution MIC, S. aureus; assay type: cell-based; conditions: Staphylococcus aureus, read-out: Sa + bicarb 25 (MIC)
In short: (§1)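 Two-fold serial dilutions in CAMHB, optionally with 25 mM sodium bicarbonate or 0-50% heat-inactivated human serum, 8 dilutions in triplicate per CLSI M07-A9 (modified). Inoculum 5×10^4 CFU/well from 0.5 McFarland suspensions grown at 35±2° C. MIC taken as lowest inhibitory concentration.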

E. coli (Ec) = assay: Broth microdilution MIC, E. coli; assay type: cell-based; conditions: Escherichia coli, read-out: E. coli + bicarb 25 (MIC)
In short: as §1

P. aeruginosa (Pa) = assay: Broth microdilution MIC, P. aeruginosa; assay type: cell-based; conditions: Pseudomonas aeruginosa, read-out: Pa + bicarb 25 (MIC)
In short: as §1

A. baumannii (Ab) = assay: Broth microdilution MIC, A. baumannii; assay type: cell-based; conditions: Acinetobacter baumannii, read-out: Ab + bicarb 25 (MIC)
In short: as §1

E. faecalis (Ef) = assay: Broth microdilution MIC, E. faecalis; assay type: cell-based; conditions: Enterococcus faecalis, read-out: Ef + bicarb 25 (MIC)
In short: as §1

E. coli S30 extract = assay: E. coli S30 extract: inhibition of bacterial protein synthesis (luciferase); assay type: biochemical; conditions: 37° C. 1 hour
In short: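 Coupled transcription-translation in E. coli S30 extract, programmed with pBESTluc plasmid, was run with 8-point 2-fold compound dilutions for 1 h at 37 °C. After a cold stop, luciferase luminescence was read and percent inhibition calculated against no-inhibitor controls.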

[1] = biological target: Rabbit Reticulocyte Lysate; assay: Rabbit Reticulocyte Lysate: inhibition of eukaryotic protein synthesis (luciferase); assay type: biochemical; conditions: 30° C. 90 minutes, read-out: Retic. IC50
In short: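 Nuclease-treated rabbit reticulocyte lysate translating luciferase control RNA with complete amino acids; compounds in 8-point 2-fold dilutions, 90 min at 30° C. Luminescence read after luciferase reagent; % inhibition versus water (no-inhibitor) control, no-RNA wells as background.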

**Q.** How did the MIC (S. aureus (Sa)) turn out when `CC(C)(N)C(=O)N1CCN(C(=O)Nc2ccn([C@H]3CC[C@H](CN4CC[C@H](CN)C4)CC3)c(=O)n2)CC1` [Compound 51, (R)-Trans-4-(2-amino-2-methylpropanoyl)-N-(1-(4-((3-(aminomethyl)pyrrolidin-1-yl)methyl)cyclohexyl)-2-oxo-1,2-dihydropyrimidin-4-yl)piperazine-1-carboxamide Hydrochloride] was run?
**A.** < 8 mg/L

**Q.** And the MIC (E. coli (Ec))?
**A.** < 8 mg/L

**Q.** What about the MIC (P. aeruginosa (Pa)) of the same compound?
**A.** > 32 mg/L

**Q.** What about the MIC (A. baumannii (Ab)) of the same compound?
**A.** > 32 mg/L

**Q.** And the MIC (E. faecalis (Ef))?
**A.** 8 to 32 mg/L

**Q.** What about the IC50 (E. coli S30 extract) of the same compound?
**A.** < 0.5 µM

**Q.** And the IC50 [1]?
**A.** ≥ 1 µM

**Q.** Which MIC (S. aureus (Sa)) does the source give for `CC(C)(N)C(=O)N1CCN(C(=O)Nc2ccn([C@H]3CC[C@H](CN4CC(N)C4)CC3)c(=O)n2)CC1` [Compound 52, trans-4-(2-Amino-2-methylpropanoyl)-N-(1-(4-((3-aminoazetidin-1-yl)methyl)cyclohexyl)-2-oxo-1,2-dihydropyrimidin-4-yl)piperazine-1-carboxamide hydrochloride salt] here?
**A.** 8 to 32 mg/L

**Q.** And the MIC (E. coli (Ec))?
**A.** < 8 mg/L

**Q.** What about the MIC (P. aeruginosa (Pa)) of the same compound?
**A.** > 32 mg/L

**Q.** What about the MIC (A. baumannii (Ab)) of the same compound?
**A.** > 32 mg/L

**Q.** What about the MIC (E. faecalis (Ef)) of the same compound?
**A.** > 32 mg/L

**Q.** And the IC50 (E. coli S30 extract)?
**A.** 0.5 to 1 µM

**Q.** What about the IC50 [1] of the same compound?
**A.** ≥ 1 µM

**Q.** Which MIC (S. aureus (Sa)) does the source give for `CC(C)(N)C(=O)N1CCN(C(=O)Nc2ccn(C3CCC(CNC4CC5(CC(N)C5)C4)CC3)c(=O)n2)CC1` (stereo not shown) [Compound 53, 4-(2-Amino-2-methylpropanoyl)-N-(1-(4-(((6-aminospiro[3.3]heptan-2-yl)amino)methyl)cyclohexyl)-2-oxo-1,2-dihydropyrimidin-4-yl)piperazine-1-carboxamide hydrochloride salt] here?
**A.** < 8 mg/L

**Q.** And the MIC (E. coli (Ec))?
**A.** 8 to 32 mg/L

**Q.** What about the MIC (P. aeruginosa (Pa)) of the same compound?
**A.** > 32 mg/L

**Q.** And the MIC (A. baumannii (Ab))?
**A.** > 32 mg/L

**Q.** What about the MIC (E. faecalis (Ef)) of the same compound?
**A.** 8 to 32 mg/L

**Q.** What about the IC50 (E. coli S30 extract) of the same compound?
**A.** < 0.5 µM

**Q.** And the IC50 [1]?
**A.** ≥ 1 µM

**Q.** For `CCN(C[C@H]1CC[C@H](n2ccc(N)nc2=O)CC1)[C@H]1CC[C@H](N)CC1` [Compound 54, 4-amino-1-((trans)-4-((((trans)-4-aminocyclohexyl)(ethyl)amino)methyl)cyclohexyl)pyrimidin-2(1H)-one], which MIC (S. aureus (Sa); S. aureus, CAMHB supplemented with sodium bicarbonate 25 mM) is on record?
**A.** > 32 mg/L

**Q.** What about the MIC (E. coli (Ec); E. coli, CAMHB supplemented with sodium bicarbonate 25 mM) of the same compound?
**A.** > 32 mg/L

**Q.** What about the MIC (P. aeruginosa (Pa); P. aeruginosa, CAMHB supplemented with sodium bicarbonate 25 mM) of the same compound?
**A.** > 32 mg/L

**Q.** And the MIC (A. baumannii (Ab); A. baumannii, CAMHB supplemented with sodium bicarbonate 25 mM)?
**A.** > 32 mg/L

**Q.** What about the MIC (E. faecalis (Ef); E. faecalis, CAMHB supplemented with sodium bicarbonate 25 mM) of the same compound?
**A.** > 32 mg/L

**Q.** And the IC50 (E. coli S30 extract)?
**A.** ≥ 1 µM

**Q.** And the IC50 [1]?
**A.** ≥ 1 µM
